The test addresses Gonadotropin-releasing hormone receptor (Rattus norvegicus) (UniProt P30969). As to the kind of experiment: Compound was evaluated in cloned rat Gonadotropin-releasing hormone receptor assay for its ability to displace the binding of [125 I-Tyr, DLeu, NMeLeu, Pro-NEt]GnRH agonist.

A word on the Ki: it is a measure of affinity in units of concentration, obtained from inhibition or displacement.

Gonadotropin-releasing hormone receptor (Rattus norvegicus), sequence (P30969 whole entry, looked up): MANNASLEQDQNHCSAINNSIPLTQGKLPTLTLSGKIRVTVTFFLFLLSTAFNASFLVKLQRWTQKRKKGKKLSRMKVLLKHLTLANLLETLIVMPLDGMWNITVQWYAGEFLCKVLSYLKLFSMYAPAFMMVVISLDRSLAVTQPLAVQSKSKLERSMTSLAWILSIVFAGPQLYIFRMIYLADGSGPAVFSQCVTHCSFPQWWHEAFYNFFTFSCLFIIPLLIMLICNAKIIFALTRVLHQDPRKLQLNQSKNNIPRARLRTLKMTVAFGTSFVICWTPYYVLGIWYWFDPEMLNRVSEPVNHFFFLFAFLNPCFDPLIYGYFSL

`COc1ccc(-c2nc3n(Cc4ccccc4F)c(C)c(-c4ccc5c(c4)OCO5)c(=O)n3c2CN(C)CCc2ccccn2)cc1` [6-Benzo[1,3]dioxol-5-yl-8-(2-fluoro-benzyl)-2-(4-methoxy-phenyl)-7-methyl-3-{[methyl-(2-pyridin-2-yl-ethyl)-amino]-methyl}-8H-imidazo[1,2-a]pyrimidin-5-one] had a Ki of 12 µM.

These data come from BindingDB's records for doi:10.1016/s0960-894x(02)00371-2 (Neurocrine Biosciences, 2002).
